The values below come from paper PMC7180948, “New Insights into 4-Anilinoquinazolines as Inhibitors of Cardiac Troponin I–Interacting Kinase (TNNi3K)” (Molecules, 2020).

Common to all, as to test: biochemical
Common to all, as to parameters: KINOMEscan competition binding panel (Eurofins DiscoverX), single concentration, percent inhibition
Common to all, as to conditions: read-out: 15 at 1 µM % inhibition

For one test, the target named is BMPR1B (Homo sapiens, UniProt O00238). The essentials: (§1)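 Selectivity profile from a KINOMEscan run against >400 human kinases; test concentration 1 µM.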
Chain of BMPR1B (O00238 whole entry): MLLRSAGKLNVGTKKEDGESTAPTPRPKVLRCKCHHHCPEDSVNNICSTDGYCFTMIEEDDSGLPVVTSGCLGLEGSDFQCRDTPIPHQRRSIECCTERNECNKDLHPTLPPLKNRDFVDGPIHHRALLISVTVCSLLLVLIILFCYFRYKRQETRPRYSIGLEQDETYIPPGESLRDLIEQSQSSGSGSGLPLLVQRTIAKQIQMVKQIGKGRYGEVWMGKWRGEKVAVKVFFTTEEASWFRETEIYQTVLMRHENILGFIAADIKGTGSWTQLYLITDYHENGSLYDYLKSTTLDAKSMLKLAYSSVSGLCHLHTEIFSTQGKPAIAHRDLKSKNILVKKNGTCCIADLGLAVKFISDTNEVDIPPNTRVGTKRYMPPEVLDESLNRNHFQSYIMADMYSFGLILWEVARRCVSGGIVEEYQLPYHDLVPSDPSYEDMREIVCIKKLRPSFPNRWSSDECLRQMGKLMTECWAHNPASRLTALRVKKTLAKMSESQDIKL
The next test addresses CAMK1 (Homo sapiens, UniProt Q14012). The method in brief: as §1
The next test addresses CAMK2G (Homo sapiens, UniProt Q13555). The essentials:
as §1

The target in a further test is T1, CDC2L5 (Homo sapiens, UniProt Q14004).
T1 construct: gene CDK13
The essentials: as §1

Another test addresses CDKL5 (Homo sapiens, UniProt O76039). The method in brief: as §1
In a further test the target is CHEK2 (Homo sapiens, UniProt O96017). The essentials:
as §1

The target in test [1] is EGFR(L747-E749del, A750P) (Homo sapiens, UniProt P00533, A750P/DEL747-749). The essentials: as §1
The target in a further test is EIF2AK1 (Homo sapiens, UniProt Q9BQI3). The method in brief: as §1
The target of another test is T2, ERK2 (Homo sapiens, UniProt P28482).
T2 construct: gene MAPK1
The essentials:
as §1

The target in another test is FES (Homo sapiens, UniProt P07332). The method in brief:
as §1

Another test concerns the target HCK (Homo sapiens, UniProt P08631). The method in brief: as §1
Another test deals with ITK (Homo sapiens, UniProt Q08881). The essentials: as §1
The target of test [2] is T3, JAK3(JH1domain-catalytic) (Homo sapiens, UniProt P52333).
T3 construct: JH1domain-catalytic
The essentials:
as §1

Another test has as its target T4, LKB1 (Homo sapiens, UniProt Q15831).
T4 construct: gene STK11
The method in brief: as §1

Another test concerns the target T5, LOK (Homo sapiens, UniProt O94804).
T5 construct: gene STK10
The essentials: as §1

Another test deals with MELK (Homo sapiens, UniProt Q14680). The method in brief: as §1
In a further test the target is MST1R (Homo sapiens, UniProt Q04912). The essentials: as §1
Chain of MST1R (Q04912 whole entry): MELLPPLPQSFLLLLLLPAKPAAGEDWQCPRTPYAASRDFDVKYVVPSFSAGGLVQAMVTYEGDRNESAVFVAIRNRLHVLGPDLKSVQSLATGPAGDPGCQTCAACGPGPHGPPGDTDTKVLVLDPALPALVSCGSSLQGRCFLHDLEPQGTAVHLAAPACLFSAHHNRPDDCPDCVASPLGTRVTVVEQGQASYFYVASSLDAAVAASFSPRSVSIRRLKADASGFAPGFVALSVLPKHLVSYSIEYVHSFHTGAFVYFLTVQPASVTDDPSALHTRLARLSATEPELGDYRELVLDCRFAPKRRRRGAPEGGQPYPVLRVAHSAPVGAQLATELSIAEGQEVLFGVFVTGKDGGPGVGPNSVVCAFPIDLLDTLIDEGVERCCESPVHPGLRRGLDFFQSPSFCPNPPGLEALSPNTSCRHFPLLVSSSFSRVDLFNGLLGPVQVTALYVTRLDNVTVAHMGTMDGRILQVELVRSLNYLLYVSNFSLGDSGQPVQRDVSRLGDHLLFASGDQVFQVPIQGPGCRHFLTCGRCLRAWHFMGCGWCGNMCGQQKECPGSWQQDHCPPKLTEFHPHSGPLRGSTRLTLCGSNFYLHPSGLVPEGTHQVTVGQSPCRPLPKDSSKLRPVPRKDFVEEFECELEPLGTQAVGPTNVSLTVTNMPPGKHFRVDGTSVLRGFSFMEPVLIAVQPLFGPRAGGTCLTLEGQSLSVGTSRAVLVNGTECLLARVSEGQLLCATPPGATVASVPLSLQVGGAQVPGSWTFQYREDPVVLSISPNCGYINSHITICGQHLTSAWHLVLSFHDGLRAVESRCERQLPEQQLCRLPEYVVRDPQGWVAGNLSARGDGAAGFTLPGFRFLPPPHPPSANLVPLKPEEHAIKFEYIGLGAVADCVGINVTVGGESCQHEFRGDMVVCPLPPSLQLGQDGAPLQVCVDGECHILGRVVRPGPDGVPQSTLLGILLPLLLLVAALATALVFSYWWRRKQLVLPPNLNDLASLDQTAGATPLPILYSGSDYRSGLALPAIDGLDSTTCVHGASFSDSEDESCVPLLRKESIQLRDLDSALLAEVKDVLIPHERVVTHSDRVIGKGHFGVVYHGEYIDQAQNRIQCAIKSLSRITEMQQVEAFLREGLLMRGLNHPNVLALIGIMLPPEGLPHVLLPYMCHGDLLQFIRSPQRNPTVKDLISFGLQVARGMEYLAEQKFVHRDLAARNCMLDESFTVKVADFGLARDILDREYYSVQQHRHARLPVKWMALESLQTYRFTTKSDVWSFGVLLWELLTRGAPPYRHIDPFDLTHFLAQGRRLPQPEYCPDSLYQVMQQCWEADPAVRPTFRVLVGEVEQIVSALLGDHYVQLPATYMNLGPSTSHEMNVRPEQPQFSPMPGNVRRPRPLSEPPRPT
The target of a further test is MYLK2 (Homo sapiens, UniProt Q9H1R3). The method in brief:
as §1

In the next test the target is NEK1 (Homo sapiens, UniProt Q96PY6). The method in brief: as §1
For the next test, the target named is NEK9 (Homo sapiens, UniProt Q8TD19). The essentials:
as §1

A further test has as its target PDGFRB (Homo sapiens, UniProt P09619). The method in brief:
as §1

The target of a further test is PHKG2 (Homo sapiens, UniProt P15735). The essentials: as §1
For a further test, the target named is T6, SNARK (Homo sapiens, UniProt Q9H093).
T6 construct: gene NUAK2
T6 sequence (Q9H093 whole entry): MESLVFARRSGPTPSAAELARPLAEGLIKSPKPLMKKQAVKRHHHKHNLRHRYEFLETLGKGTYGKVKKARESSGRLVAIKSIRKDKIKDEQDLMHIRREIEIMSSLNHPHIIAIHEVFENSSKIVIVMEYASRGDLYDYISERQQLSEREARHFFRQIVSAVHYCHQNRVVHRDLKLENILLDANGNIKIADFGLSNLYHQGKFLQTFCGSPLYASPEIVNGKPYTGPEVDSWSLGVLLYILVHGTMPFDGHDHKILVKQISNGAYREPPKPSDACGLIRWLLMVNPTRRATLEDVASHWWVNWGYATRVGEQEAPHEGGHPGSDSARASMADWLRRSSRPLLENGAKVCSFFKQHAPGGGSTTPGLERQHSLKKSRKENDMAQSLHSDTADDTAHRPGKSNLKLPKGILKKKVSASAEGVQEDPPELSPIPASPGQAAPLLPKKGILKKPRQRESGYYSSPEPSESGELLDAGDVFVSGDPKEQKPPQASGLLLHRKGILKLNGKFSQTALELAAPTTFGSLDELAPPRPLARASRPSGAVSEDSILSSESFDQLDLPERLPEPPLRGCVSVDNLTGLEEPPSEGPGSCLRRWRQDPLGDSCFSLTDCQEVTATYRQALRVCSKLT
The essentials: as §1

The target in a further test is STK39 (Homo sapiens, UniProt Q9UEW8). The method in brief:
as §1

Each structure is given as a SMILES string.

Chain of NEK9 (Q8TD19 whole entry): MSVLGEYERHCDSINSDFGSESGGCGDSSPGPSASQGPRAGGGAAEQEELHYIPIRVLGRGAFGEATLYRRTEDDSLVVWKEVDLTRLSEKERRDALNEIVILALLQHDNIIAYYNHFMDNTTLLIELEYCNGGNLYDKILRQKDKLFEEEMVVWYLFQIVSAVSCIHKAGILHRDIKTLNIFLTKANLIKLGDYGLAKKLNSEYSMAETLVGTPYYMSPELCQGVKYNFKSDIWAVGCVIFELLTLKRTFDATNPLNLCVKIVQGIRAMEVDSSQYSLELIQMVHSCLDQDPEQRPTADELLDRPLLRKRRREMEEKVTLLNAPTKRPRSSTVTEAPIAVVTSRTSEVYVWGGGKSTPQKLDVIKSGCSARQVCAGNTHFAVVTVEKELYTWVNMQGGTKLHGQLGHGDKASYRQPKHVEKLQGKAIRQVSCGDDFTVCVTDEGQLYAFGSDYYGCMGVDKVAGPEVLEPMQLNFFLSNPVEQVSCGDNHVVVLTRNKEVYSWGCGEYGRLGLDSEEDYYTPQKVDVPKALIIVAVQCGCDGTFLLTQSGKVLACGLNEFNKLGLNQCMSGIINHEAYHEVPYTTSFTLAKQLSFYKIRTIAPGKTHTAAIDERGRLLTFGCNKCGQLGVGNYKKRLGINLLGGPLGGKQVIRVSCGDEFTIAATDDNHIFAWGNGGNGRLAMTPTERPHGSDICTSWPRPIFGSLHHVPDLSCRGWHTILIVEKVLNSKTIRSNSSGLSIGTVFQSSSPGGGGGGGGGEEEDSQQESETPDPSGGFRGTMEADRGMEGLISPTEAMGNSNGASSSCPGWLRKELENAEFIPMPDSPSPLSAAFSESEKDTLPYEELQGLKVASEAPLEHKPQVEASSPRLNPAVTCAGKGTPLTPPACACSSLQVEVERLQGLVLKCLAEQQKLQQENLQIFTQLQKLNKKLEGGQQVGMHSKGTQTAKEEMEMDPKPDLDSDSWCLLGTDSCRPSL
Chain of HCK (P08631 whole entry): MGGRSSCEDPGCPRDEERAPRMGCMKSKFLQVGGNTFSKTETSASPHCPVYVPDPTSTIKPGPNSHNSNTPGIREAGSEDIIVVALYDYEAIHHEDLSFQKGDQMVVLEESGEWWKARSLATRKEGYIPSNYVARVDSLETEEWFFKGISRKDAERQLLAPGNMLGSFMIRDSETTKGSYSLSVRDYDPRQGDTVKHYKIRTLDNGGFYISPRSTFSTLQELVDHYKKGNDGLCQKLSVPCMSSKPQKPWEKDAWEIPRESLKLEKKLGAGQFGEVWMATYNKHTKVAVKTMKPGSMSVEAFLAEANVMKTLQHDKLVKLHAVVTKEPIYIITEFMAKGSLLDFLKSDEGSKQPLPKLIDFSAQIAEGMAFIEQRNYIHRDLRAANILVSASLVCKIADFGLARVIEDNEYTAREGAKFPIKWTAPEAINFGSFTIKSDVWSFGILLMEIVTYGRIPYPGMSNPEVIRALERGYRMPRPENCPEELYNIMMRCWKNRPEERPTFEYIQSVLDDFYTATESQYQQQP
Chain of CDKL5 (O76039 whole entry): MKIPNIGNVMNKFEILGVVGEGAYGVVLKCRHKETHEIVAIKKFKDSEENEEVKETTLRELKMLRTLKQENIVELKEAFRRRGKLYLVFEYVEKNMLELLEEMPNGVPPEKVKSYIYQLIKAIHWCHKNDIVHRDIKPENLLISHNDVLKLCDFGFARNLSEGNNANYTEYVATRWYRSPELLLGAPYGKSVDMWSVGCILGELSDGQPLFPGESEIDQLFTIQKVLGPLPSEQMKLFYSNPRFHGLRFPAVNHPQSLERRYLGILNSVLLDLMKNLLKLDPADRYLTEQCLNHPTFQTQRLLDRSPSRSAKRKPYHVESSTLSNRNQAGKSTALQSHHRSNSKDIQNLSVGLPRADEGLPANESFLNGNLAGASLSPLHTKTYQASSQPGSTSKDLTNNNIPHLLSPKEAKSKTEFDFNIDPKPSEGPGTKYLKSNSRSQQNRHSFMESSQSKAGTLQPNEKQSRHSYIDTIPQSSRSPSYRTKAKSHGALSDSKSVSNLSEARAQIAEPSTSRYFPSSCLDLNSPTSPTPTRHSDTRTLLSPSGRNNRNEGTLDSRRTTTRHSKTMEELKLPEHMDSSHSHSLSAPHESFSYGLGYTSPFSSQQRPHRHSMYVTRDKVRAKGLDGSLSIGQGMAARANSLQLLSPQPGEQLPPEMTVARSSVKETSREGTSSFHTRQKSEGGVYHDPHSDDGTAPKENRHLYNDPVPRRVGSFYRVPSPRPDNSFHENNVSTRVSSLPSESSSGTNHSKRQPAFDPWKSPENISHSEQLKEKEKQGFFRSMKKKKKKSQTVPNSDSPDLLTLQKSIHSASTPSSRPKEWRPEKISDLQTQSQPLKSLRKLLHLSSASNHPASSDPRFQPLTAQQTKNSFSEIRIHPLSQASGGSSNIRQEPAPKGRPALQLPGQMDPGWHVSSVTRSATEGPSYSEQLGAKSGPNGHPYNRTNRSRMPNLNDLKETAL

A word on the inhibition: it is how much of the control response was suppressed. In the case of `CNS(=O)(=O)c1ccc(N(C)C)c(Nc2nc(C)nc3cc(OC)c(OC)cc23)c1` [compound 15, 3-((6,7-dimethoxy-2-methylquinazolin-4-yl)amino)-4-(dimethylamino)-N-methylbenzenesulfonamide], the inhibition at 1 µM on BMPR1B amounted to 31%; on CAMK1 it was 0%; at CAMK2G, 0%; on CDC2L5, 23%; on CDKL5, 19%; on CHEK2 it was 13%. In addition, the inhibition at 1 µM was 0% in test [1]; 4% at EIF2AK1; 0% at ERK2; 0% at FES; 4% on HCK; 0% at ITK. Also, the inhibition at 1 µM in test [2] turned out to be 10%; on LKB1, 0%; at LOK, 7%; on MELK, 0%; on MST1R, 9%; on MYLK2 it was 3%. For the same compound, the inhibition at 1 µM on NEK1 was determined as 1%; on NEK9, 0%; at PDGFRB, 10%; on PHKG2, 2%; on SNARK, 18%; at STK39 it was 2%.
